Results: PMC6207684, “Structural reorganization of SHP2 by oncogenic mutations and implications for oncoprotein resistance to allosteric inhibition” (Nature Communications, 2018)

Assays:
wild-type U2OS cells = test: Western blot pErk quantification; format: cell-based
Experimental: (§1) Lysis was visually confirmed with light microscopy, and lysates were added to gel loading buffer and run on Novex^TM wedgewell^TM 12% Tris-Glycine gels (Invitrogen XP00122) at 180 V for 1 h. Proteins were transferred from gels to polyvinylidene difluoride membranes using an iBlot 2 Dry Blotting System (Thermo Fisher IB21001). After transfer, membranes were blocked with either 5% bovine serum albumin or 5% nonfat milk in tris-buffered saline with tween (TBST) at room temperature for 1 h and then incubated with primary antibody (CST 9101 pErk at 1:500 dilution, CST 9102 Erk at 1:500 dilution, CST 3752 SHP2 at 1:300 dilution, or Sigma A1978 β-Actin at 1:3000 dilution) in respective blocking solution overnight at 4 °C, washed 3 × with TBST for 5 min, incubated with secondary antibody (ECL^TM Anti-Rabbit GE NA934V or Anti-Mouse GE NXA931V at 1:10,000 dilution) in respective blocking solution for 1 h at room temperature, and washed 3 x with TBST for 5 min. Following final wash, membranes were imaged on a GE Amersham Imager 600 using SuperSignal® West Pico Chemiluminescent Substrate (Pierce 34080). Linear brightness and contrast adjustments were applied uniformly across the entire image, and band densities were quantified using Fiji[24]. Western blot images are representative of at least two replicates, which were performed on different days.

U2OS cells = test: pERK induction by EGF stimulation in serum-starved U2OS cells, western blot; format: cell-based; conditions: U2OS serum starved 48 hours; SHP099 10 µM for 2 hours; EGF 5 nM; lysed 10 min after stimulation
Experimental: or vehicle cont rol f or 2 hours, and t hen st imulat ed wit h EGF. Cells were lysed on ice 10 min
af t er st imulat ion, and pErklevels were analyzed by western blot. […]

PTPN11-null U2OS cells = test: Western blot pErk quantification; format: cell-based; conditions: 2 h treatment
Text: (§2) PTPN11−/−/− U2OS cells were generated using the methodology described by Zhang et al.[25]. In brief, CRISPR guides against the first three exons of the PTPN11 proto-oncogene were designed using the Sanger CRISPR database, cloned into the pSpCas9(BB)-2A-GFP vector, transfected into U2OS (ATCC® HTB-96^TM) cells using manufacturer-recommended Fugene®HD methodologies, and assayed for knockdown of SHP2 protein levels, via western blot, in bulk.
Lysis was visually confirmed with light microscopy, and lysates were added to gel loading buffer and run on Novex^TM wedgewell^TM 12% Tris-Glycine gels (Invitrogen XP00122) at 180 V for 1 h. Proteins were transferred from gels to polyvinylidene difluoride membranes using an iBlot 2 Dry Blotting System (Thermo Fisher IB21001). […] Linear brightness and contrast adjustments were applied uniformly across the entire image, and band densities were quantified using Fiji[24]. […]

[1] = test system: cancer cell lines that are dependent on receptor tyrosine kinases and wild-type SHP2; design: method as in PMID 27362227; conditions: cited from earlier work
wild-type SHP2 = test system: wild-type SHP2; design: method as in PMID 27362227; conditions: biochemical assays; cited from earlier work
[2] = test system: PTPN11-null U2OS cells expressing SHP2^D61V; test: Western blot pErk quantification; format: cell-based; conditions: SHP2^D61V in PTPN11-null U2OS cells (other cancer mutants investigated)
Text: as §2
(§3) Mammalian SHP2 expression plasmids were designed from pCMV-SHP2 WT, which was provided as a gift from Ben Neel (Addgene plasmid #8381), using site-directed mutagenesis (QuikChange, Agilent; see Supplementary Table 4 for the sequences of all primers used in this study). Mutation acquisition and plasmid identity were confirmed via DNA sequencing.
as §1

[3] = test system: PTPN11-null U2OS cells expressing SHP2^S502P; test: Western blot pErk quantification; format: cell-based; conditions: SHP2^S502P in PTPN11-null U2OS cells; 50 μM SHP099
Text: as §2, §3, §1

[4] = test system: PTPN11-null U2OS cells expressing SHP2^E76K; test: Western blot pErk quantification; format: cell-based; conditions: SHP2^E76K in PTPN11-null U2OS cells (other cancer mutants investigated)
Text: as §2, §3, §1

[5] = test system: PTPN11-null U2OS cells re-expressing SHP2^WT; test: Western blot pErk quantification; format: cell-based
Text: as §2, §3, §1

[6] = test system: PTPN11-null U2OS cells expressing SHP2^G60V; test: Western blot pErk quantification; format: cell-based; conditions: SHP2^G60V in PTPN11-null U2OS cells (other cancer mutants investigated)
Text: as §2, §3, §1

[7] = test system: PTPN11-null U2OS cells expressing SHP2^F285S; test: Western blot pErk quantification; format: cell-based; conditions: read-out: IC50 for pErk reduction by SHP099; PTPN11-null U2OS cells harboring SHP2^F285S; 2 h treatment
Text: as §2, §3, §1

CC1(N)CCN(c2cnc(-c3cccc(Cl)c3Cl)c(N)n2)CC1 [SHP099]
pErk levels upon SHP099 treatment (western blot) (wild-type U2OS cells; 2 h treatment): dramatically reduces pErk levels
IC50 (wild-type U2OS cells; read-out: IC50 for pErk reduction by SHP099, 2 h treatment, western blot densitometry): 2 ± 1 µM
pERK induction in response to EGF stimulation (U2OS cells): attenuated
pErk levels upon SHP099 treatment (western blot) (PTPN11-null U2OS cells): unaffected
antiproliferative activity [1]: antiproliferative activity
affinity for wild-type SHP2 (wild-type SHP2): nanomolar affinity
inhibition of Erk phosphorylation [2]: does not significantly inhibit Erk phosphorylation
loss of pErk [3]: little, if any, loss of pErk
inhibition of Erk phosphorylation [4]: does not significantly inhibit Erk phosphorylation
reduction of pErk levels by SHP099 (incomplete, maximal) ([5]; SHP2^WT-rescued PTPN11-null U2OS cells): ~ 65%
IC50 ([5]; read-out: IC50 for pErk reduction by SHP099, PTPN11-null cells re-expressing SHP2^WT, 2 h treatment, western blot densitometry): 4 ± 2 µM
inhibition of Erk phosphorylation [6]: does not significantly inhibit Erk phosphorylation
IC50 [7]: 8 ± 2 µM
